How the values were obtained:
Test in all cases: Tumor-associated kinase inhibition test
Assay type in all cases: biochemical
Conditions in all cases: read-out: Inhibitory rate (%)
ALK(h) = target: T1, ALK(h) (Homo sapiens, UniProt Q9UM73)
T1 construct: purchased Eurofins Pharma Discovery Services UK Limited (contract assay service)
Text: (§1) Eurofins Pharma Discovery Services UK Limited completed and reported this experiment.

ASK1(h) = target: T2, ASK1(h) (Homo sapiens, UniProt Q99683)
T2 construct: purchased Eurofins Pharma Discovery Services UK Limited (contract assay service)
Text: as §1

Abl(h) = target: T3, Abl(h) (Homo sapiens, UniProt P00519)
T3 construct: purchased Eurofins Pharma Discovery Services UK Limited (contract assay service)
Text: as §1

Aurora-A(h) = target: T4, Aurora-A(h) (Homo sapiens, UniProt O14965)
T4 construct: purchased Eurofins Pharma Discovery Services UK Limited (contract assay service)
Text: as §1

Axl(h) = target: T5, Axl(h) (Homo sapiens, UniProt P30530)
T5 construct: purchased Eurofins Pharma Discovery Services UK Limited (contract assay service)
Text: as §1

CDK1/cyclinB(h) = target: T6, CDK1/cyclinB(h) (Homo sapiens, UniProt P06493)
T6 construct: purchased Eurofins Pharma Discovery Services UK Limited (contract assay service)
Text: as §1

CDK2/cyclinE(h) = target: T7, CDK2/cyclinE(h) (Homo sapiens, UniProt P24941)
T7 construct: purchased Eurofins Pharma Discovery Services UK Limited (contract assay service)
Text: as §1

CDK3/cyclinE(h) = target: T8, CDK3/cyclinE(h) (Homo sapiens, UniProt Q00526)
T8 construct: purchased Eurofins Pharma Discovery Services UK Limited (contract assay service)
Text: as §1

CHK1(h) = target: T9, CHK1(h) (Homo sapiens, UniProt O14757)
T9 construct: purchased Eurofins Pharma Discovery Services UK Limited (contract assay service)
Text: as §1

CK1δ(h) = target: T10, CK1δ(h) (Homo sapiens, UniProt P48730)
T10 construct: purchased Eurofins Pharma Discovery Services UK Limited (contract testing)
Text: as §1

CaMKIIβ(h) = target: T11, CaMKIIβ(h) (Homo sapiens, UniProt Q13554)
T11 construct: purchased Eurofins Pharma Discovery Services UK Limited (contract assay service)
Text: as §1

CaMKK2(h) = target: T12, CaMKK2(h) (Homo sapiens, UniProt Q96RR4)
T12 construct: purchased Eurofins Pharma Discovery Services UK Limited (contract assay service)
Text: as §1

DYRK2(h) = target: T13, DYRK2(h) (Homo sapiens, UniProt Q92630)
T13 construct: purchased Eurofins Pharma Discovery Services UK Limited (contract testing)
Text: as §1

EGFR(h) = target: T14, EGFR(h) (Homo sapiens, UniProt P00533)
T14 construct: purchased Eurofins Pharma Discovery Services UK Limited (contract testing)
Text: as §1

EphB2(h) = target: T15, EphB2(h) (Homo sapiens, UniProt P29323)
T15 construct: purchased Eurofins Pharma Discovery Services UK Limited (contract testing)
Text: as §1

EphB4(h) = target: T16, EphB4(h) (Homo sapiens, UniProt P54760)
T16 construct: purchased Eurofins Pharma Discovery Services UK Limited (contract testing)
Text: as §1

FGFR1(h) = target: T17, FGFR1(h) (Homo sapiens, UniProt P11362)
T17 construct: purchased Eurofins Pharma Discovery Services UK Limited (contract testing)
Text: as §1

Fms(h) = target: T18, Fms(h) (Homo sapiens, UniProt P07333)
T18 construct: purchased Eurofins Pharma Discovery Services UK Limited (contract testing)
Text: as §1

Fyn(h) = target: T19, Fyn(h) (Homo sapiens, UniProt P06241)
T19 construct: purchased Eurofins Pharma Discovery Services UK Limited (contract testing)
Text: as §1

KDR(h) = target: T20, KDR(h) (Homo sapiens, UniProt P35968)
T20 construct: purchased Eurofins Pharma Discovery Services UK Limited
Text: as §1

Lck(h)activated = target: T21, Lck(h)activated (Homo sapiens, UniProt P06239)
T21 construct: purchased Eurofins Pharma Discovery Services UK Limited
Text: as §1

MAPK2(h) = target: T22, MAPK2(h) (Homo sapiens, UniProt P28482)
T22 construct: purchased Eurofins Pharma Discovery Services UK Limited
Text: as §1

MST2(h) = target: T23, MST2(h) (Homo sapiens, UniProt Q13188)
T23 construct: purchased Eurofins Pharma Discovery Services UK Limited
Text: as §1

PDGFRα(h) = target: T24, PDGFRα(h) (Homo sapiens, UniProt P16234)
T24 construct: purchased Eurofins Pharma Discovery Services UK Limited
Text: as §1

PEK(h) = target: T25, PEK(h) (Homo sapiens, UniProt Q9NZJ5)
T25 construct: purchased Eurofins Pharma Discovery Services UK Limited
Text: as §1

PI3KC2γ(h) = target: T26, PI3KC2γ(h) (Homo sapiens, UniProt O75747)
T26 construct: purchased Eurofins Pharma Discovery Services UK Limited (contract assay)
Text: as §1

PI3Kinase(p110δ/p85α)(h) = target: T27, PI3Kinase(p110δ/p85α)(h) (Homo sapiens, UniProt O00329)
T27 construct: purchased Eurofins Pharma Discovery Services UK Limited (contract assay)
Text: as §1

PI3Kinase(p120γ)(h) = target: T28, PI3Kinase(p120γ)(h) (Homo sapiens, UniProt P48736)
T28 construct: purchased Eurofins Pharma Discovery Services UK Limited (contract assay)
Text: as §1

PIP4K2α(h) = target: T29, PIP4K2α(h) (Homo sapiens, UniProt P48426)
T29 construct: purchased Eurofins Pharma Discovery Services UK Limited (contract assay)
Text: as §1

PKBα(h) = target: T30, PKBα(h) (Homo sapiens, UniProt P31749)
T30 construct: purchased Eurofins Pharma Discovery Services UK Limited
Text: as §1

PKBβ(h) = target: T31, PKBβ(h) (Homo sapiens, UniProt P31751)
T31 construct: purchased Eurofins Pharma Discovery Services UK Limited
Text: as §1

PKCα(h) = target: T32, PKCα(h) (Homo sapiens, UniProt P17252)
T32 construct: purchased Eurofins Pharma Discovery Services UK Limited
Text: as §1

PKCε(h) = target: T33, PKCε(h) (Homo sapiens, UniProt Q02156)
T33 construct: purchased Eurofins Pharma Discovery Services UK Limited
Text: as §1

Rsk1(h) = target: T34, Rsk1(h) (Homo sapiens, UniProt Q15418)
T34 construct: purchased Eurofins Pharma Discovery Services UK Limited
Text: as §1

Rsk3(h) = target: T35, Rsk3(h) (Homo sapiens, UniProt Q15349)
T35 construct: purchased Eurofins Pharma Discovery Services UK Limited
Text: as §1

ZAP-70(h) = target: T36, ZAP-70(h) (Homo sapiens, UniProt P43403)
T36 construct: purchased Eurofins Pharma Discovery Services UK Limited
Text: as §1

cKit(h) = target: T37, cKit(h) (Homo sapiens, UniProt P10721)
T37 construct: purchased Eurofins Pharma Discovery Services UK Limited (contract testing)
Text: as §1

cSRC(h) = target: T38, cSRC(h) (Homo sapiens, UniProt P12931)
T38 construct: purchased Eurofins Pharma Discovery Services UK Limited (contract testing)
Text: as §1

mTOR/FKBP12(h) = target: T39, mTOR/FKBP12(h) (Homo sapiens, UniProt P42345)
T39 construct: purchased Eurofins Pharma Discovery Services UK Limited
Text: as §1

p70S6K(h) = target: T40, p70S6K(h) (Homo sapiens, UniProt P23443)
T40 construct: purchased Eurofins Pharma Discovery Services UK Limited
Text: as §1

T20 sequence (P35968 20-1356): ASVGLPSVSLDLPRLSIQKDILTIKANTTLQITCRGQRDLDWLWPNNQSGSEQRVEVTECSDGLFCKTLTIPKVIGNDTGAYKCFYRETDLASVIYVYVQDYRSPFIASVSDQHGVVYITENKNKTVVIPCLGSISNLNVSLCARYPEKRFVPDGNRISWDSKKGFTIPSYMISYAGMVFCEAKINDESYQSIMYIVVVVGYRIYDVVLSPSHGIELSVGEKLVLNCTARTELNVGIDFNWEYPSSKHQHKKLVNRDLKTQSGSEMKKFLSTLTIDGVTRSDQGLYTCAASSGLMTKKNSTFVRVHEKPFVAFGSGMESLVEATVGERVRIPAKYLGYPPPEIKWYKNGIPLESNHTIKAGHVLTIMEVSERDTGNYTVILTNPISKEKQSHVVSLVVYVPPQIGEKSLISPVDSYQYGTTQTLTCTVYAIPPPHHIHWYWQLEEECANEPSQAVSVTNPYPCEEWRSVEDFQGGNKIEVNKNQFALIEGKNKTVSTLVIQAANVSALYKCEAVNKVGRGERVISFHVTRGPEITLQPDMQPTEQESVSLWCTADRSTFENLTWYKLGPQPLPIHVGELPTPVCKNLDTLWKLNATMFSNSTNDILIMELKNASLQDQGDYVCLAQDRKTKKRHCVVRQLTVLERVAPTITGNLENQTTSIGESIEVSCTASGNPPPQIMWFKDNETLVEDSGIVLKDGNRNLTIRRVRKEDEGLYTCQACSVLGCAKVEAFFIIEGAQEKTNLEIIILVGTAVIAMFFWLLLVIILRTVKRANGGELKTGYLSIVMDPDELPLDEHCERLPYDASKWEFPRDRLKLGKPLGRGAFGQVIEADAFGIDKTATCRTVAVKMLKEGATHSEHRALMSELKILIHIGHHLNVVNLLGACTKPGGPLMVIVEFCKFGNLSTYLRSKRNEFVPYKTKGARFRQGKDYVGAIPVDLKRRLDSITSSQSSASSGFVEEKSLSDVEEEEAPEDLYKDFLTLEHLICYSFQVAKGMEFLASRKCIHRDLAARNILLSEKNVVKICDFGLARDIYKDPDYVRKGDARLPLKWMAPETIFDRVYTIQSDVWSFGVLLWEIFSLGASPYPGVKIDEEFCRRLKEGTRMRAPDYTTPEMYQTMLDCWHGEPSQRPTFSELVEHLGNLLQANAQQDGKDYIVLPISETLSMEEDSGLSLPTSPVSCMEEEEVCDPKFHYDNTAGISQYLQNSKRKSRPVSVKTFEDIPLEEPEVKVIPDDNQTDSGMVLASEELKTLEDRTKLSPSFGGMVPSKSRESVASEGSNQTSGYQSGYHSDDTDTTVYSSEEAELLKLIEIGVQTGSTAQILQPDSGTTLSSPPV
T17 sequence (P11362 22-822): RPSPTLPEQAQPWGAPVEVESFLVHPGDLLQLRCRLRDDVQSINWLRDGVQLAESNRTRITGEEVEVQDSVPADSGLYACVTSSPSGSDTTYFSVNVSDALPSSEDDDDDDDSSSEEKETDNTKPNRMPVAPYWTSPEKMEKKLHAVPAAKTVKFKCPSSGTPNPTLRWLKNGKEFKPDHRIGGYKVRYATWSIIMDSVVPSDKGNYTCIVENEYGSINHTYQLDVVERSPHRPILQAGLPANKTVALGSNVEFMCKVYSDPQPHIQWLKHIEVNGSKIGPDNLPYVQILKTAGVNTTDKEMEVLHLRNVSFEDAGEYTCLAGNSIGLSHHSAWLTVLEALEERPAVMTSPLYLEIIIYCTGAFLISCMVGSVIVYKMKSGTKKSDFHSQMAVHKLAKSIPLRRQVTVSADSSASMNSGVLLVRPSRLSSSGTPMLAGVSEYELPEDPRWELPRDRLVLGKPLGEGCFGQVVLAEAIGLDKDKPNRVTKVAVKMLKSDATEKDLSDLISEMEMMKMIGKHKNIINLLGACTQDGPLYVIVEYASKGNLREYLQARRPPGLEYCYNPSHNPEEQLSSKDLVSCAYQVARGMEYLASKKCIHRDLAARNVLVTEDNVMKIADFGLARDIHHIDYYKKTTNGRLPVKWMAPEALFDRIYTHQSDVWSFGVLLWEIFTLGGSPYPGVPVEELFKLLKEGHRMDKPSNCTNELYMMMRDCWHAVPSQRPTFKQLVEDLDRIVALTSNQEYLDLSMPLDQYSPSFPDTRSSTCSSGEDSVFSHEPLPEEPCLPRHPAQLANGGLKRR
T40 sequence (P23443 whole entry): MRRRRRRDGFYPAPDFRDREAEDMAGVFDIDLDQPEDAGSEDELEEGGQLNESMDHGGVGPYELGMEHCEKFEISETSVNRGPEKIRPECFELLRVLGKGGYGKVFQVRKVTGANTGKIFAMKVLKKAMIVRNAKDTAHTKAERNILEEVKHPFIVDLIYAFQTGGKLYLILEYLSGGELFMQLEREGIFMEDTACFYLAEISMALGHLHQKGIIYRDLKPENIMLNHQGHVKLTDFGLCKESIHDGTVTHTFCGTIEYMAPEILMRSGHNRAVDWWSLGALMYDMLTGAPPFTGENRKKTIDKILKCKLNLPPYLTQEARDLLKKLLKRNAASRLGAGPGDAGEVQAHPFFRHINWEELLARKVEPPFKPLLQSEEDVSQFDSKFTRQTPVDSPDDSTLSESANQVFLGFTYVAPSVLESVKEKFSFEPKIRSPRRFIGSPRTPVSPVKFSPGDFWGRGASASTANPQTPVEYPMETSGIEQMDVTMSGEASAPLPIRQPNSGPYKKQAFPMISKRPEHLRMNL
T31 sequence (P31751 whole entry): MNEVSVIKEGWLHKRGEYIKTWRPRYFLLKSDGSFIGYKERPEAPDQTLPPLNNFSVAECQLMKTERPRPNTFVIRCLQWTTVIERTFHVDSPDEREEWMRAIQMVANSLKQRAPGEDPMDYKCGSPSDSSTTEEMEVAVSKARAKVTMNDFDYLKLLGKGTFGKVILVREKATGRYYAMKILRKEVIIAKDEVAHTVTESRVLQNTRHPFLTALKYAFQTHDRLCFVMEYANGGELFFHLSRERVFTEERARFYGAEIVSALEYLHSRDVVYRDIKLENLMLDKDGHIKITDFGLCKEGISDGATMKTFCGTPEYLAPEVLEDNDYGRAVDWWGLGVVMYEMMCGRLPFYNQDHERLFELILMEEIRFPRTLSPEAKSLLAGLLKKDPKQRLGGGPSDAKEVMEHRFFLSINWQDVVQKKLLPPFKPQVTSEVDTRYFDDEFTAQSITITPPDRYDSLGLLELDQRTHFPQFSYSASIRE
T18 sequence (P07333 20-972): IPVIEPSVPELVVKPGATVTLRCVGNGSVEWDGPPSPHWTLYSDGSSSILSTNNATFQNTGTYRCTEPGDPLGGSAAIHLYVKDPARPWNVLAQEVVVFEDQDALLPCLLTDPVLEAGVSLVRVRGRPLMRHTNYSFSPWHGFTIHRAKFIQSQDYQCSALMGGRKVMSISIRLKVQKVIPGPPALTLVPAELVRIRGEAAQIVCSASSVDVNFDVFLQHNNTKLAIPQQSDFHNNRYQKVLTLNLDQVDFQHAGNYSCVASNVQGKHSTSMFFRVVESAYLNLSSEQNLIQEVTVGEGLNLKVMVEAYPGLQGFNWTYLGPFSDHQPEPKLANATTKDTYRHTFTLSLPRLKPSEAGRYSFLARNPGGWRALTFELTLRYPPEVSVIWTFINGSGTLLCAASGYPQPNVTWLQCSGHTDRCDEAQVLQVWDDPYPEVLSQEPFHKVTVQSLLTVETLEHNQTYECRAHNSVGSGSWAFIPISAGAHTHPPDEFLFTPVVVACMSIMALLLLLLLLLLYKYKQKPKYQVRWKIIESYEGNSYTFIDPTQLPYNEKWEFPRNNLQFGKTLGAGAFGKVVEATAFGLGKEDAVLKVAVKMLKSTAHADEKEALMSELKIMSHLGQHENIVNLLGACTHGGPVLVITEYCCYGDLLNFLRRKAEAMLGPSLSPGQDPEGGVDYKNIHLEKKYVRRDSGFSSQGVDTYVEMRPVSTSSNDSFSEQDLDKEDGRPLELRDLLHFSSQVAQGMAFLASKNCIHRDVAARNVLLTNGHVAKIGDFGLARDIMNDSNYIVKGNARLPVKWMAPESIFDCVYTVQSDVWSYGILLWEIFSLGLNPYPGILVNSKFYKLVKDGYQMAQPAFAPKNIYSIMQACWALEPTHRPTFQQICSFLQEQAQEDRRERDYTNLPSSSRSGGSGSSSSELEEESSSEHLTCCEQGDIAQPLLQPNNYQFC
T5 sequence (P30530 26-894): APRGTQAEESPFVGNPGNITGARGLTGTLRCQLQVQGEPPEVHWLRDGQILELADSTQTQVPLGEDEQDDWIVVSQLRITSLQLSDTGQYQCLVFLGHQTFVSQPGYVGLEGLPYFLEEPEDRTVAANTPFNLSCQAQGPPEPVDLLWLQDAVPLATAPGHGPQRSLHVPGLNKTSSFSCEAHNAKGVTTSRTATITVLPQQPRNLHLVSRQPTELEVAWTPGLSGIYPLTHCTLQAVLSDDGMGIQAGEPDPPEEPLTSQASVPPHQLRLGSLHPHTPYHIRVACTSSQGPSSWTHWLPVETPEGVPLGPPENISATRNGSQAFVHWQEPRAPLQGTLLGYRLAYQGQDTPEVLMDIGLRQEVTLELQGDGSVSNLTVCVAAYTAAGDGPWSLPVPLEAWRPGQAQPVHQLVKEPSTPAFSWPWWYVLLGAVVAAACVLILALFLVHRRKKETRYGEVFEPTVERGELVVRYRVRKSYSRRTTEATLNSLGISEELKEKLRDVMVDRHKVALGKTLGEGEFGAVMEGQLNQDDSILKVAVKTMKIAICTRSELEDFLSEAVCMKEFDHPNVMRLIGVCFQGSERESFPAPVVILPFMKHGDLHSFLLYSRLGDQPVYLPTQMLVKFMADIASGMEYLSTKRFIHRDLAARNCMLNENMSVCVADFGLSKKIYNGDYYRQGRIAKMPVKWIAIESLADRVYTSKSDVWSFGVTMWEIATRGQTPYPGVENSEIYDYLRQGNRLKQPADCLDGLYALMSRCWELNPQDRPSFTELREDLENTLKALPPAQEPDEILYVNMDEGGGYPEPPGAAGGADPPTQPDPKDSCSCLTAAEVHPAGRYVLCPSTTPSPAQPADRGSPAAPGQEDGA

`C=C(C)n1c(=O)n(C(C)=O)c2ncc(Br)cc21` [FD162] was tested, and the inhibition at 10 µM (ALK(h)) was 16%, the inhibition at 10 µM (ASK1(h)) was 4% and the inhibition at 10 µM (Abl(h)) was 2%. For the same compound, the inhibition at 10 µM (Aurora-A(h)) was 1%, the inhibition at 10 µM (Axl(h)) was 24% and the inhibition at 10 µM (CDK1/cyclinB(h)) was 1%. The inhibition at 10 µM (CDK2/cyclinE(h)) was 0%, the inhibition at 10 µM (CDK3/cyclinE(h)) was 7% and the inhibition at 10 µM (CHK1(h)) was -14%. The inhibition at 10 µM (CK1δ(h)) was 7%, the inhibition at 10 µM (CaMKIIβ(h)) was 2% and the inhibition at 10 µM (CaMKK2(h)) was 1%. For the same compound, the inhibition at 10 µM (DYRK2(h)) was 1%, the inhibition at 10 µM (EGFR(h)) was 0% and the inhibition at 10 µM (EphB2(h)) was 7%. For the same compound, the inhibition at 10 µM (EphB4(h)) was -8%, the inhibition at 10 µM (FGFR1(h)) was 4% and the inhibition at 10 µM (Fms(h)) was -9%. The inhibition at 10 µM (Fyn(h)) was 2%, the inhibition at 10 µM (KDR(h)) was -1% and the inhibition at 10 µM (Lck(h)activated) was -1%. The inhibition at 10 µM (MAPK2(h)) was -6%, the inhibition at 10 µM (MST2(h)) was 1% and the inhibition at 10 µM (PDGFRα(h)) was -9%. For the same compound, the inhibition at 10 µM (PEK(h)) was 0%, the inhibition at 10 µM (PI3KC2γ(h)) was 3% and the inhibition at 10 µM (PI3Kinase(p110δ/p85α)(h)) was 3%. For the same compound, the inhibition at 10 µM (PI3Kinase(p120γ)(h)) was 2%, the inhibition at 10 µM (PIP4K2α(h)) was -2% and the inhibition at 10 µM (PKBα(h)) was 4%. For the same compound, the inhibition at 10 µM (PKBβ(h)) was 4%, the inhibition at 10 µM (PKCα(h)) was 24% and the inhibition at 10 µM (PKCε(h)) was -1%. For the same compound, the inhibition at 10 µM (Rsk1(h)) was 9%, the inhibition at 10 µM (Rsk3(h)) was 2% and the inhibition at 10 µM (ZAP-70(h)) was -5%. It also gave an inhibition at 10 µM (cKit(h)) of 7%, an inhibition at 10 µM (cSRC(h)) of -4% and an inhibition at 10 µM (mTOR/FKBP12(h)) of 33%. It also gave an inhibition at 10 µM (p70S6K(h)) of 3%.
